# According to patent publication US9814704B2, “Substituted pyrrolo[2,3-b]pyridines as MLK inhibitors” (The University of Rochester, priority 2008, dated 2017):
# Target: MLK3 (Homo sapiens (Human), UniProt Q16584)
# Test: Radiometric Filter Plate MLK3 Assay
# Type: biochemical
# Details: 200 ng (130 nM) MLK3, 1 μM inactive MKK7b, 2 μM cold ATP (Km), 33P ATP, twenty minute incubation; read-out: MK3 IC50
# Description: Radiometric Filter Plate MLK3 Assay
# After a twenty minute incubation, the reactions were washed through filter plates and read on a scintillation counter. Results are shown in Table 4 below, in which +++ indicates ≦0.1 μM, ++ indicates >0.1 μM and ≦1 μM, and + indicates >1 μM.
# MLK3, sequence (Q16584 whole entry): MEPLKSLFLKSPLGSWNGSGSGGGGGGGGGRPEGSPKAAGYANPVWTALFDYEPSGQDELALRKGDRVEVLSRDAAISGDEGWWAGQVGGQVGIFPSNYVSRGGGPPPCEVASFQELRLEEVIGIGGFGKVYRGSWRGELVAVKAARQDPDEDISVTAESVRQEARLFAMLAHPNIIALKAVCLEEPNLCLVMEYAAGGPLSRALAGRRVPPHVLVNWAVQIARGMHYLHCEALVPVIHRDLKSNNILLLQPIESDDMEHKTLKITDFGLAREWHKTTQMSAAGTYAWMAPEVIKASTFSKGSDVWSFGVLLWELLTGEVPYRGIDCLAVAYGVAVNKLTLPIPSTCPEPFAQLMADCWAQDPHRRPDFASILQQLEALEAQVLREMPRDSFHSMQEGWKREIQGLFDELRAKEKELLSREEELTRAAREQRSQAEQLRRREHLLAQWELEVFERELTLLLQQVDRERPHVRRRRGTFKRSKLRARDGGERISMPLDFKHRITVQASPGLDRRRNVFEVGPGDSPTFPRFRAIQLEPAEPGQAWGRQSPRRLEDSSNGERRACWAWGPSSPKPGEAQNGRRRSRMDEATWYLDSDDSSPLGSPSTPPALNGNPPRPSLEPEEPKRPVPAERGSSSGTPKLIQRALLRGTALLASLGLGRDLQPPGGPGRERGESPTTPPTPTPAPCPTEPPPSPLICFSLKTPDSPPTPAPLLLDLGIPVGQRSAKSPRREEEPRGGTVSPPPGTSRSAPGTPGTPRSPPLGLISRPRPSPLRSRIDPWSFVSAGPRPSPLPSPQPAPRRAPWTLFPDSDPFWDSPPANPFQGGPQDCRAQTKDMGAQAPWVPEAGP
row,IC50 [nM],Compound
1,< 100,"COc1cc(-c2cnc3[nH]c(=O)n(-c4ccc5[nH]ccc5c4)c3n2)ccc1N [Example 60, 6-(4-amino-3-methoxyphenyl)-1-(1H-indol-5-yl)-1H-imidazo[4,5-b]pyrazin-2(3H)-one]"
2,> 1000,"COc1cc(-c2cnc3[nH]c(=O)n(-c4ccc(N5CCOCC5)nc4)c3n2)cc(OC)c1OC [Example 109, 1-(6-morpholinopyridin-3-yl)-6-(3,4,5-trimethoxyphenyl)-1H-imidazo[4,5-b]pyrazin-2(3H)-one]"
3,< 100,"CC(C)(C)OC(=O)N1CCN(C(=O)c2ccc(-c3cnc4[nH]cc(-c5ccc(C(N)=O)cc5)c4c3)cc2)CC1 [Example 148, 4-{4-[3-(4-carbamoyl-phenyl)-1H-pyrrolo[2,3-b]pyridin-5-yl]-benzoyl}-piperazine-1-carboxylic acid tert-butyl ester]"
4,< 100,"CN1CCN(c2cc(-c3cnc4[nH]cc(-c5ccc6[nH]ccc6c5)c4c3)ccn2)CC1 [Example 7, 3-(1H-indol-5-yl)-5-(2-(4-methylpiperazin-1-yl)pyridin-4-yl)-1H-pyrrolo[2,3-b]pyridine]"
5,> 1000,"Cc1cc(C)cc(-c2cnc3[nH]c(=O)n(-c4ccc5[nH]ccc5c4)c3n2)c1 [Example 46, 6-(3,5-dimethylphenyl)-1-(1H-indol-5-yl)-1H-imidazo[4,5-b]pyrazin-2(3H)-one]"
6,< 100,"COc1cc(-c2cnc3[nH]cc(-c4ccc5[nH]ccc5c4)c3n2)ccc1N [Example 38, 4-(7-(1H-indol-5-yl)-5H-pyrrolo[3,2-b]pyrazin-2-yl)-2-methoxyaniline]"
7,< 100,"COc1ccc(-c2cnc3[nH]cc(-c4ccc(C(N)=O)cc4)c3c2)cc1OC [Example 26, 4-(5-(3,4-dimethoxyphenyl)-1H-pyrrolo[2,3-b]pyridin-3-yl)benzamide]"
8,> 1000,"COc1cc(-c2cnc3c(c2)C(=Cc2ccccc2)C(=O)N3)cc(OC)c1OC [Example 130, 3-benzylidene-5-(3,4,5-trimethoxy-phenyl)-1,3-dihydro-pyrrolo[2,3-b]pyridin-2-one]"
9,< 100,"COc1cc(-c2cnc3[nH]c(=O)n(-c4ccc5cc[nH]c5c4)c3n2)cc(OC)c1OC [Example 113, 1-(1H-indol-6-yl)-6-(3,4,5-trimethoxyphenyl)-1H-imidazo[4,5-b]pyrazin-2(3H)-one]"
10,> 1000,"COc1ccc(-n2c(=O)[nH]c3ncc(-c4ccc(O)cc4)nc32)cc1 [Example 70, 6-(4-hydroxyphenyl)-1-(4-methoxyphenyl)-1H-imidazo[4,5-b]pyrazin-2(3H)-one]"
11,< 100,"COc1cc(-c2cnc3[nH]cc(-c4ccc(CNC(C)=O)cc4)c3c2)cc(OC)c1OC [Example 159, N-{4-[5-(3,4,5-Trimethoxy-phenyl)-1H-pyrrolo[2,3-b]pyridin-3-yl]-benzyl}-acetamide]"
12,< 100,"COc1cc(-c2cnc3[nH]cc(-c4ccc(N)cc4)c3c2)cc(OC)c1OC [Example 15, 4-(5-(3,4,5-trimethoxyphenyl)-1H-pyrrolo[2,3-b]pyridin-3-yl)aniline]"
13,> 1000,"CN(C)c1ccc(-c2cnc3[nH]cc(-c4ccc(F)c(Cl)c4)c3c2)cn1 [Example 22, 5-(3-(3-chloro-4-fluorophenyl)-1H-pyrrolo[2,3-b]pyridin-5-yl)-N,N-dimethylpyridin-2-amine]"
14,< 100,"COc1cc(-c2cnc3[nH]cc(-c4ccc(NC(C)=O)cc4)c3c2)cc(OC)c1OC [Example 16, N-(4-(5-(3,4,5-trimethoxyphenyl)-1H-pyrrolo[2,3-b]pyridin-3-yl)phenyl)acetamide]"
15,> 1000,"COc1ccc(-n2c(=O)[nH]c3ncc(-c4ccncc4)nc32)cc1 [Example 71, 1-(4-methoxyphenyl)-6-(pyridin-4-yl)-1H-imidazo[4,5-b]pyrazin-2(3H)-one]"
16,< 100,"CC(C)(C)OC(=O)N1CCN(Cc2ccc(-c3cnc4[nH]cc(-c5ccc6[nH]ccc6c5)c4c3)cc2)CC1 [Example 144, 4-{4-[3-(1H-indol-5-yl)-1H-pyrrolo[2,3-b]pyridin-5-yl]-benzyl}-piperazine-1-carboxylic acid tert-butyl ester]"
17,< 100,"Nc1ccc(-c2cnc3[nH]cc(-c4ccc5[nH]ccc5c4)c3c2)cc1 [Example 8, 4-(3-(1H-indol-5-yl)-1H-pyrrolo[2,3-b]pyridin-5-yl)aniline]"
18,> 1000,"CN1CCN(c2cc(-c3cnc4[nH]c(=O)n(-c5ccc6[nH]ccc6c5)c4n3)ccn2)CC1 [Example 66, 1-(1H-indol-5-yl)-6-(2-(4-methylpiperazin-1-yl)pyridin-4-yl)-1H-imidazo[4,5-b]pyrazin-2(3H)-one]"
19,> 1000,"COc1cc(-c2cnc3c(c2)/C(=C\c2ccncc2)C(=O)N3)cc(OC)c1OC [Example 129, (E)- and (Z)-3-pyridin-4-ylmethylene-5-(3,4,5-trimethoxy-phenyl)-1,3-dihydro-pyrrolo[2,3-b]pyridin-2-one]"

row,Compound,IC50 [nM]
1,"COc1cc(-c2cnc3c(c2)C(CC2CC2)C(=O)N3)cc(OC)c1OC (stereo not drawn) [Example 123, 3-(cyclopropylmethyl)-5-(3,4,5-trimethoxyphenyl)-1H-pyrrolo[2,3-b]pyridin-2(3H)-one]",100 to 1000

# Same assay, conditions: read-out: MK3 IC50
row,IC50 [nM],Compound
1,100 to 1000,"COc1ccc(-c2cnc3[nH]c(=O)n(-c4ccc5[nH]ccc5c4)c3n2)cc1N [Example 50, 6-(3-amino-4-methoxyphenyl)-1-(1H-indol-5-yl)-1H-imidazo[4,5-b]pyrazin-2(3H)-one]"
2,100 to 1000,"O=c1[nH]c2ncc(-c3ccc(O)cc3)nc2n1-c1ccc2[nH]ccc2c1 [Example 45, 6-(4-hydroxyphenyl)-1-(1H-indol-5-yl)-1H-imidazo[4,5-b]pyrazin-2(3H)-one]"
3,100 to 1000,"COc1ccc(-n2c(=O)[nH]c3ncc(-c4cc(OC)c(OC)c(OC)c4)nc32)cc1 [Example 68, 1-(4-methoxyphenyl)-6-(3,4,5-trimethoxyphenyl)-1H-imidazo[4,5-b]pyrazin-2(3H)-one]"
4,100 to 1000,"c1ccc(-c2cnc3[nH]cc(-c4ccc5[nH]ccc5c4)c3c2)cc1 [Example 14, 3-(1H-indol-5-yl)-5-phenyl-1H-pyrrolo[2,3-b]pyridine]"
5,100 to 1000,"COc1ccc(-c2cnc3[nH]c(=O)n(-c4ccc5[nH]ccc5c4)c3n2)cc1OC [Example 47, 6-(3,4-dimethoxyphenyl)-1-(1H-indol-5-yl)-1H-imidazo[4,5-b]pyrazin-2(3H)-one]"
6,100 to 1000,"O=c1[nH]c2ncc(-c3ccc4[nH]ccc4c3)nc2n1-c1ccc2[nH]ccc2c1 [Example 53, 1,6-di(1H-indol-5-yl)-1H-imidazo[4,5-b]pyrazin-2(3H)-one]"
7,100 to 1000,"COc1cc(-c2cnc3[nH]c(=O)n(-c4ccc5scnc5c4)c3n2)cc(OC)c1OC [Example 96, 1-(benzo[d]thiazol-5-yl)-6-(3,4,5-trimethoxyphenyl)-1H-imidazo[4,5-b]pyrazin-2(3H)-one]"
8,< 100,"CNc1ccc(-c2cnc3[nH]cc(-c4ccc5[nH]ccc5c4)c3c2)cn1 [Example 30, 5-(3-(1H-indol-5-yl)-1H-pyrrolo[2,3-b]pyridin-5-yl)-N-methylpyridin-2-amine]"
9,100 to 1000,"COc1cc(-c2cnc3[nH]c(=O)n(CC4CC4)c3n2)cc(OC)c1OC [Example 78, 1-(cyclopropylmethyl)-6-(3,4,5-trimethoxyphenyl)-1H-imidazo[4,5-b]pyrazin-2(3H)-one]"
10,100 to 1000,"COc1ccc(-c2cnc3[nH]c(=O)n(-c4ccc5[nH]cnc5c4)c3n2)cc1OC [Example 103, 1-(1H-benzo[d]imidazol-5-yl)-6-(3,4-dimethoxyphenyl)-1H-imidazo[4,5-b]pyrazin-2(3H)-one]"
